Experimental data published in patent publication US20250163104A1, “MACROCYCLIC IMMUNOMODULATORS” (priority 2021, published 2025).
Where a SMILES comes first, the peptide text is derived from it. Bridges are numbered along the chain shown (N, C = ends). [ ]: non-standard residue; d: D form. The star is where a group is joined. Phg(4-Ph) = N[C@H](C(=O)O)c1ccc(-c2ccccc2)cc1; Bip = N[C@@H](Cc1ccc(-c2ccccc2)cc1)C(=O)O; Cha = N[C@@H](CC1CCCCC1)C(=O)O; Cit = NC(=O)NCCC[C@H](N)C(=O)O; Ahp(2) = CCCCC[C@H](N)C(=O)O; Carboxymethyl = O=C(O)C*; Orn = NCCC[C@H](N)C(=O)O; Dab = NCC[C@H](N)C(=O)O; Dap = NC[C@H](N)C(=O)O

molecular target: T1, human PD-1 / PD-L1-Ig binding on Jurkat cell line over-expressing human PD-1 (Jurkat-PD-1) (Homo sapiens, UniProt Q15116); test: Jurkat-PD-1 Cell Binding High-Content Screening Assay (CBA); format: cell-based; settings: Jurkat-PD-1 cells, PE-labeled PD-L1-Ig 20 nM final; read-out: Jurkat HPD1_PDL1 IC50
T1 construct: expressed in transfected cells; host or cells: Jurkat
Protocol: Example 3. Jurkat-PD-1 Cell Binding High-Content Screening Assay (CBA)
Jurkat-PD-1 Cell Binding High-Content Screening Assay (CBA). Phycoerythrin (PE) was covalently linked to the Ig epitope tag of human PD-L1-Ig and fluorescently-labeled PD-L1-Ig was used for binding studies with a Jurkat cell line over-expressing human PD-1 (Jurkat-PD-1). Briefly, 8×10^3 Jurkat-hPD-1 cells were seeded into 384 well plates in 20 μl of DMEM supplemented with 10% fetal calf serum. 100 nL of compound was added to cells followed by incubation at 37° C. for 2 h. Then, 5 μl of PE-labeled PD-L1-Ig (20 nM final), diluted in DMEM supplemented with 10% fetal calf serum. After 1 hour incubation, cells were fixed with 4% paraformaldehyde in dPBS containing 10 μg/ml Hoechst 33342 and then washed 3x in 100 μl dPBS. Data was collected and processed using a Cell Insight NXT High Content Imager and associated software.

T1 sequence (Q15116 25-288): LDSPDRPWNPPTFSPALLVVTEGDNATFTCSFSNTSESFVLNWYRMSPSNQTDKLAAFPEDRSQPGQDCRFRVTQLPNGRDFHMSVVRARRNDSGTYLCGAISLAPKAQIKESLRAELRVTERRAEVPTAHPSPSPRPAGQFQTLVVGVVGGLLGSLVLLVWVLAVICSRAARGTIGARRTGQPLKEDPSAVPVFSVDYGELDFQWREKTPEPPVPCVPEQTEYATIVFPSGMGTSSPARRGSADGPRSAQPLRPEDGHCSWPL

IC50 [nM]	SMILES
209	Cc1cccc(C[C@@H]2NC(=O)[C@H](CC(=O)O)NC(=O)[C@H](Cc3ccc(OCC(=O)O)cc3)NC(=O)[C@H](Cc3ccncc3)NC(=O)CSC[C@@H](C(=O)N[C@@H](CCN)C(N)=O)NC(=O)[C@H](CO)NC(=O)[C@H](C(C)(C)O)NC(=O)[C@H](CC3CCCCC3)NC(=O)[C@H](CCN)NC(=O)[C@@H](CC(C)C)NC(=O)C(C3CCNCC3)NC(=O)[C@H](Cc3ccc(OCC(=O)O)cc3)NC(=O)[C@H](Cc3ccc(-c4ccccc4)cc3)NC(=O)[C@H](Cc3ccc(OCC(=O)O)cc3)NC2=O)c1 (mixture of isomers) [Compound 2084]
251	CCCCC[C@@H]1NC(=O)[C@H](C(C)C)NC(=O)[C@@H](Cc2ccccc2)NC(=O)[C@H](CC(=O)O)NC(=O)[C@H](CCCNC(=N)N)NC(=O)[C@H](c2ccc(-c3ccccc3)cc2)NC(=O)[C@H](C(C)C)NC(=O)[C@H](Cc2c[nH]c3ccccc23)NC(=O)[C@H](CC(=O)O)NC(=O)[C@H](Cc2ccc(O)cc2)NC(=O)[C@H](Cc2ccccc2)NC(=O)CSC[C@@H](C(=O)NCC(N)=O)NC(=O)[C@H](CO)NC(=O)[C@H](C(C)C)NC1=O [Compound 1000] ({CH2CO}-FYDWV[Phg(4-Ph)]RD[dF]V[Ahp(2)]VSCG-NH2; thioether N-14)
140	CC(C)C[C@@H]1NC(=O)[C@H](CCN)NC(=O)[C@@H](CC(C)C)NC(=O)[C@H](C)NC(=O)[C@H](CCCNC(=N)N)NC(=O)[C@H](Cc2ccc(-c3ccccc3)cc2)NC(=O)[C@H](C(C)C)NC(=O)[C@H](Cc2c[nH]c3ccccc23)NC(=O)[C@H](CC(=O)O)NC(=O)[C@H](Cc2ccc(O)cc2)NC(=O)[C@H](CC(N)=O)NC(=O)CSC[C@@H](C(=O)N[C@@H](C)C(N)=O)NC(=O)[C@H]([C@@H](C)O)NC(=O)[C@H](C(C)C)NC1=O [Compound 1001] ({CH2CO}-NYDWV[Bip]RA[dL][Dab]LVTCA-NH2; thioether N-14)
17.2	COC[C@@H]1NC(=O)[C@H](Cc2c[nH]c3ccccc23)NC(=O)[C@H](CC(=O)O)NC(=O)[C@H](Cc2ccc(OCC(=O)O)cc2)NC(=O)[C@H](CN)NC(=O)CSC[C@@H](C(=O)N[C@@H](C)C(N)=O)NC(=O)[C@H]([C@@H](C)O)NC(=O)[C@H](C(C)C)NC(=O)[C@H](CC2CCCCC2)NC(=O)[C@H](CCN)NC(=O)[C@@H](CC(C)C)NC(=O)[C@H](CCCN)NC(=O)[C@H](CCCNC(N)=O)NC(=O)[C@H](Cc2ccc(-c3ccccc3)cc2)NC1=O [Compound 1002] ({CH2CO}-[Dap]Y(Carboxymethyl)DWS(Me)[Bip][Cit][Orn][dL][Dab][Cha]VTCA-NH2; thioether N-14)
614	CCCCC[C@@H]1NC(=O)[C@H](C(C)C)NC(=O)[C@H](Cc2ccccc2)NC(=O)[C@H](CC(=O)O)NC(=O)[C@H](CCCNC(=N)N)NC(=O)[C@H](Cc2ccc(-c3ccccc3)cc2)NC(=O)[C@H](C(C)C)NC(=O)[C@H](Cc2c[nH]c3ccccc23)NC(=O)[C@H](CC(=O)O)NC(=O)[C@H](Cc2ccc(O)cc2)NC(=O)[C@H](Cc2ccccc2)NC(=O)CSC[C@@H](C(=O)NCC(N)=O)NC(=O)[C@H](CO)NC(=O)[C@H](C(C)C)NC1=O [Compound 1003] ({CH2CO}-FYDWV[Bip]RDFV[Ahp(2)]VSCG-NH2; thioether N-14)
53.2	CC(C)C[C@@H]1NC(=O)[C@H](CCN)NC(=O)[C@@H](CC(C)C)NC(=O)[C@H](CCN)NC(=O)[C@H](CCCNC(=N)N)NC(=O)[C@H](Cc2ccc(-c3ccccc3)cc2)NC(=O)[C@H](C(C)C)NC(=O)[C@H](Cc2c[nH]c3ccccc23)NC(=O)[C@H](CC(=O)O)NC(=O)[C@H](Cc2ccc(O)cc2)NC(=O)[C@H](CC(N)=O)NC(=O)CSC[C@@H](C(=O)N[C@@H](C)C(N)=O)NC(=O)[C@H]([C@@H](C)O)NC(=O)[C@H](C(C)C)NC1=O [Compound 1004] ({CH2CO}-NYDWV[Bip]R[Dab][dL][Dab]LVTCA-NH2; thioether N-14)
35.8	CC(C)C[C@@H]1NC(=O)[C@H](CCN)NC(=O)[C@@H](CC(C)C)NC(=O)[C@H](CCCN)NC(=O)[C@H](CCCNC(=N)N)NC(=O)[C@H](Cc2ccc(-c3ccccc3)cc2)NC(=O)[C@H](C(C)C)NC(=O)[C@H](Cc2c[nH]c3ccccc23)NC(=O)[C@H](CC(=O)O)NC(=O)[C@H](Cc2ccc(O)cc2)NC(=O)[C@H](CC(N)=O)NC(=O)CSC[C@@H](C(=O)N[C@@H](C)C(N)=O)NC(=O)[C@H]([C@@H](C)O)NC(=O)[C@H](C(C)C)NC1=O [Compound 1005] ({CH2CO}-NYDWV[Bip]R[Orn][dL][Dab]LVTCA-NH2; thioether N-14)
98.1	CC(C)C[C@@H]1NC(=O)[C@H](CCCNC(=N)N)NC(=O)[C@@H](CC(C)C)NC(=O)[C@H](C)NC(=O)[C@H](CCCNC(=N)N)NC(=O)[C@H](Cc2ccc(-c3ccccc3)cc2)NC(=O)[C@H](C(C)C)NC(=O)[C@H](Cc2c[nH]c3ccccc23)NC(=O)[C@H](CC(=O)O)NC(=O)[C@H](Cc2ccc(O)cc2)NC(=O)[C@H](CC(N)=O)NC(=O)CSC[C@@H](C(=O)N[C@@H](C)C(N)=O)NC(=O)[C@H]([C@@H](C)O)NC(=O)[C@H](C(C)C)NC1=O [Compound 1006] ({CH2CO}-NYDWV[Bip]RA[dL]RLVTCA-NH2; thioether N-14)
45.3	CC(C)C[C@@H]1NC(=O)[C@H](CCCNC(=N)N)NC(=O)[C@@H](CC(C)C)NC(=O)[C@H](CCCCN)NC(=O)[C@H](CCCNC(=N)N)NC(=O)[C@H](Cc2ccc(-c3ccccc3)cc2)NC(=O)[C@H](C(C)C)NC(=O)[C@H](Cc2c[nH]c3ccccc23)NC(=O)[C@H](CC(=O)O)NC(=O)[C@H](Cc2ccc(O)cc2)NC(=O)[C@H](CC(N)=O)NC(=O)CSC[C@@H](C(=O)N[C@@H](C)C(N)=O)NC(=O)[C@H]([C@@H](C)O)NC(=O)[C@H](C(C)C)NC1=O [Compound 1007] ({CH2CO}-NYDWV[Bip]RK[dL]RLVTCA-NH2; thioether N-14)
59.9	CC(C)C[C@@H]1NC(=O)[C@H](CCN)NC(=O)[C@@H](CC(C)C)NC(=O)[C@H](CCCCN)NC(=O)[C@H](CCCNC(=N)N)NC(=O)[C@H](Cc2ccc(-c3ccccc3)cc2)NC(=O)[C@H](C(C)C)NC(=O)[C@H](Cc2c[nH]c3ccccc23)NC(=O)[C@H](CC(=O)O)NC(=O)[C@H](Cc2ccc(O)cc2)NC(=O)[C@H](CC(N)=O)NC(=O)CSC[C@@H](C(=O)N[C@@H](C)C(N)=O)NC(=O)[C@H]([C@@H](C)O)NC(=O)[C@H](C(C)C)NC1=O [Compound 1008] ({CH2CO}-NYDWV[Bip]RK[dL][Dab]LVTCA-NH2; thioether N-14)
52.9	CC(C)C[C@@H]1NC(=O)[C@H](CCN)NC(=O)[C@@H](CC(C)C)NC(=O)[C@H](CN)NC(=O)[C@H](CCCNC(=N)N)NC(=O)[C@H](Cc2ccc(-c3ccccc3)cc2)NC(=O)[C@H](C(C)C)NC(=O)[C@H](Cc2c[nH]c3ccccc23)NC(=O)[C@H](CC(=O)O)NC(=O)[C@H](Cc2ccc(O)cc2)NC(=O)[C@H](CC(N)=O)NC(=O)CSC[C@@H](C(=O)N[C@@H](C)C(N)=O)NC(=O)[C@H]([C@@H](C)O)NC(=O)[C@H](C(C)C)NC1=O [Compound 1009] ({CH2CO}-NYDWV[Bip]R[Dap][dL][Dab]LVTCA-NH2; thioether N-14)
99.6	CC(C)C[C@@H]1NC(=O)[C@H](CCCNC(=N)N)NC(=O)[C@@H](CC(C)C)NC(=O)[C@H](CN)NC(=O)[C@H](CCCNC(=N)N)NC(=O)[C@H](Cc2ccc(-c3ccccc3)cc2)NC(=O)[C@H](C(C)C)NC(=O)[C@H](Cc2c[nH]c3ccccc23)NC(=O)[C@H](CC(=O)O)NC(=O)[C@H](Cc2ccc(O)cc2)NC(=O)[C@H](CC(N)=O)NC(=O)CSC[C@@H](C(=O)N[C@@H](C)C(N)=O)NC(=O)[C@H]([C@@H](C)O)NC(=O)[C@H](C(C)C)NC1=O [Compound 1010] ({CH2CO}-NYDWV[Bip]R[Dap][dL]RLVTCA-NH2; thioether N-14)
67.1	CC(C)C[C@@H]1NC(=O)[C@H](CCCNC(=N)N)NC(=O)[C@@H](CC(C)C)NC(=O)[C@H](CCN)NC(=O)[C@H](CCCNC(=N)N)NC(=O)[C@H](Cc2ccc(-c3ccccc3)cc2)NC(=O)[C@H](C(C)C)NC(=O)[C@H](Cc2c[nH]c3ccccc23)NC(=O)[C@H](CC(=O)O)NC(=O)[C@H](Cc2ccc(O)cc2)NC(=O)[C@H](CC(N)=O)NC(=O)CSC[C@@H](C(=O)N[C@@H](C)C(N)=O)NC(=O)[C@H]([C@@H](C)O)NC(=O)[C@H](C(C)C)NC1=O [Compound 1011] ({CH2CO}-NYDWV[Bip]R[Dab][dL]RLVTCA-NH2; thioether N-14)
43.6	CC(C)C[C@@H]1NC(=O)[C@H](CCCNC(=N)N)NC(=O)[C@@H](CC(C)C)NC(=O)[C@H](CCCN)NC(=O)[C@H](CCCNC(=N)N)NC(=O)[C@H](Cc2ccc(-c3ccccc3)cc2)NC(=O)[C@H](C(C)C)NC(=O)[C@H](Cc2c[nH]c3ccccc23)NC(=O)[C@H](CC(=O)O)NC(=O)[C@H](Cc2ccc(O)cc2)NC(=O)[C@H](CC(N)=O)NC(=O)CSC[C@@H](C(=O)N[C@@H](C)C(N)=O)NC(=O)[C@H]([C@@H](C)O)NC(=O)[C@H](C(C)C)NC1=O [Compound 1012] ({CH2CO}-NYDWV[Bip]R[Orn][dL]RLVTCA-NH2; thioether N-14)
129	CC(C)C[C@@H]1NC(=O)[C@H](CCCNC(=N)N)NC(=O)[C@@H](CC(C)C)NC(=O)[C@@H](CCCCN)NC(=O)[C@H](CCCNC(=N)N)NC(=O)[C@H](Cc2ccc(-c3ccccc3)cc2)NC(=O)[C@H](C(C)C)NC(=O)[C@H](Cc2c[nH]c3ccccc23)NC(=O)[C@H](CC(=O)O)NC(=O)[C@H](Cc2ccc(O)cc2)NC(=O)[C@H](CC(N)=O)NC(=O)CSC[C@@H](C(=O)N[C@@H](C)C(N)=O)NC(=O)[C@H]([C@@H](C)O)NC(=O)[C@H](C(C)C)NC1=O [Compound 1013] ({CH2CO}-NYDWV[Bip]R[dK][dL]RLVTCA-NH2; thioether N-14)
